Our source for the IC50 values is ChEMBL document CHEMBL5727270, “Macrocyclic immunomodulators” (2019).

Structures are written as SMILES. Where only a bound is given, the exact number is not on record here.

Sequence of Programmed cell death 1 ligand 1 (Q9NZQ7 whole entry): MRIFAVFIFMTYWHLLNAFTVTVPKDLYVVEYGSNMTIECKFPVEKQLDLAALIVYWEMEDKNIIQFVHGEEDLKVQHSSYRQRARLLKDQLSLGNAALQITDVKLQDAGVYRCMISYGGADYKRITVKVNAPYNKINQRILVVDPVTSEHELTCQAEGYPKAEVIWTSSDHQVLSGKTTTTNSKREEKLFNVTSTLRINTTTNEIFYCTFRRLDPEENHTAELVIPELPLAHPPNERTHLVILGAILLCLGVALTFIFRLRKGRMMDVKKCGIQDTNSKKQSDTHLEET

This experiment concerns the target Programmed cell death 1 ligand 1 (Homo sapiens, UniProt Q9NZQ7). The experiment can be described thus: Enzyme-Linked Immunosorbent Assay - ELISA: 96 Well plates were coated with 1 μg/mL of human PD-L1 (obtained from R&D) in PBS overnight at 4° C. The wells were then blocked with 2% BSA in PBS (W/V) with 0.05% TWEEN-20 for 1 hour at 37° C. The plates were washed 3 times with PBS/0.05% TWEEN-20 and the compounds were serial diluted (1:5) in dilution medium and added to the ELISA plates. Human PD-1 and biotin 0.3 μg/mL (ACRO Biosystems) were added and incubated for 1 hour at 37° C. then washed 3 times with PBS/0.05% TWEEN-20. A second block was performed with 2% BSA in PBS (W/V)/0.05% TWEEN-20 for 10 min at 37° C. and was washed 3 times with PBS/0.05% TWEEN-20. Streptavidin-HRP was added for 1 hour at 37° C. then washed 3 times with PBS/0.05% TWEEN-20. TMB substrate was added and reacted for 20 min at 37° C. A stop solution (2 N aqueous H2SO4) was added. The absorbance was read at 450 nm using a micro-plate spectrophotometer. A general note: An ELISA detects its analyte on a solid surface through an enzyme-linked reagent.
In turn, `Cc1c(COc2cc3c(cc2Cl)CN[C@H](C(=O)O)CCCCCCNC(=O)c2cncc(c2)CO3)cccc1-c1cccc(OCCCN2CCC(O)CC2)c1C` yielded an IC50 of less than 100 nM. In turn, `Cc1c(COc2cc3c(cc2Cl)CN[C@H](C(=O)O)CCCCNC(=O)c2cncc(c2)CO3)cccc1-c1cccc(OCCCN2CC[C@@H](O)C2)c1C` returned an IC50 of less than 100 nM. The compound `Cc1c(COc2cc3c(cc2Cl)CN[C@H](C(=O)O)CCCCNC(=O)c2cc(C#N)cc(c2)CO3)cccc1-c1cccc(OCCCN2CC[C@@H](O)C2)c1C` showed a half-inhibitory concentration (IC50) of less than 100 nM. As for `Cc1c(COc2cc3c(cc2Cl)CN[C@@H](C(=O)O)CCCCNC(=O)c2cncc(c2)CO3)cccc1-c1ccccc1`, the figure is less than 100 nM; as for `Cc1c(COc2cc3c(cc2Cl)CN[C@H](CO)CCCCNC(=O)c2cncc(c2)CO3)cccc1-c1cccc(OCCCN2CCC(O)CC2)c1C`, less than 100 nM. As for `Cc1c(COc2cc3c(cc2Cl)CN[C@H](C(=O)O)CCCCNC(=O)c2cc(C#N)cc(c2)CO3)cccc1-c1cccc(OCCCN2CCC(O)CC2)c1C`, the figure is less than 100 nM.

For orientation: IC50 means the concentration at which inhibition is half-maximal. Higher therefore signals lower potency.
